# Assay results reported in ChEMBL document CHEMBL6078667, “Synthesis, Biological Evaluation, and Mechanistic Insights of Rubrolide Analogues as Antitumor Agents” (J Nat Prod, 2024).
# Activity calls are given as the source filed them. The rule behind the calls is not given here.
# Legend:
# [1] = system: HeLa; test: Induction of apoptosis in human HeLa cells assessed as late apoptotic cells at 0.4 uM incubated for 24 hrs by Annexin V-FITC/PI staining based flow cytometric analysis (reference value: 6.58 %); assay type: functional
# [2] = system: HeLa; test: Cell cycle arrest in human HeLa cells assessed as accumulation of cells at G2/M phase at 0.2 uM measured after 24 hrs by PI staining based flow cytometric analysis (reference value: 22.8 %); assay type: functional
# [3] = system: HeLa; test: Upregulation of CHOP expression in human HeLa cells at 0.2 to 0.4 uM measured after 48 hrs by Western blot analysis; assay type: functional, cell-based; settings: dose 0.2-0.4 µM
# [4] = system: HeLa; test: Induction of apoptosis in human HeLa cells assessed as early apoptotic cells at 0.2 uM incubated for 24 hrs by Annexin V-FITC/PI staining based flow cytometric analysis (reference value: 2.35 %); assay type: functional
# [5] = system: MCF7; test: Cytotoxicity against human MCF7 cells assessed as inhibition of cell growth incubated for 72 hrs by MTT assay; assay type: functional, cell-based; settings: MCF7, 72 h
# [6] = system: HCT-116; test: Induction of apoptosis in human HCT-116 cells assessed as viable cells at 0.2 uM incubated for 24 hrs by Annexin V-FITC/PI staining based analysis (reference value: 92.4 %); assay type: functional; settings: read-out: Activity
# [7] = system: HCT-116; test: Induction of apoptosis in human HCT-116 cells assessed as viable cells at 0.4 uM incubated for 24 hrs by Annexin V-FITC/PI staining based analysis (reference value: 92.4 %); assay type: functional; settings: read-out: Activity
# [8] = system: HeLa; test: Induction of apoptosis in human HeLa cells assessed as late apoptotic cells at 0.2 uM incubated for 24 hrs by Annexin V-FITC/PI staining based flow cytometric analysis (reference value: 6.58 %); assay type: functional
# [9] = Drug localization in human HeLa cell endoplasmic reticulum incubated for 8 hrs by […] dye based fluorescence microscopic analysis; assay type: ADME, subcellular
# [10] = system: HeLa; test: Induction of ROS production in human HeLa cells assessed as fold change at 0.2 to 0.4 uM incubated for 24 hrs by DCFH-DA probe based flow cytometric analysis; assay type: functional; settings: dose 0.2-0.4 µM
# [11] = system: HeLa; test: Cell cycle arrest in human HeLa cells assessed as increase in cyclin B1 expression at 0.2 to 0.4 uM incubated for 24 hrs by Western blot analysis; assay type: functional, cell-based; settings: dose 0.2-0.4 µM
# [12] = system: HCT-116; test: Cell cycle arrest in human HCT-116 cells assessed as accumulation of cells at G2/M phase at 0.2 uM measured after 24 hrs by PI staining based flow cytometric analysis (reference value: 26.4 %); assay type: functional
# [13] = system: MKN-45; test: Cytotoxicity against human MKN-45 cells assessed as inhibition of cell growth at 10 uM measured after 72 hrs by MTT assay relative to control; assay type: functional
# [14] = system: HCT-116; test: Upregulation of phosphorylated PERK expression in human HCT-116 cells at 0.2 to 0.4 uM measured after 48 hrs by Western blot analysis; assay type: functional, cell-based; settings: dose 0.2-0.4 µM
# [15] = system: HeLa; test: Antitumor activity against human HeLa cells xenografted in female BALB/c nude mouse assessed as reduction in tumor cell growth administered intraperitoneally as liposome formulation once daily for 13 days; assay type: functional; settings: dose 5-20 mg/kg, route ip, time 13.0 day
# [16] = system: HeLa; test: Cytotoxicity against human HeLa cells assessed as inhibition of cell growth incubated for 72 hrs by MTT assay; assay type: functional, cell-based
# [17] = system: HeLa; test: Cytotoxicity against human HeLa cells assessed as inhibition of cell growth at 10 uM measured after 72 hrs by MTT assay relative to control; assay type: functional
# [18] = system: MGC-803; test: Cytotoxicity against human MGC-803 cells assessed as inhibition of cell growth incubated for 72 hrs by MTT assay; assay type: functional, cell-based; settings: MGC-803, 72 h
# [19] = system: HeLa; test: Upregulation of phosphorylated eIF2alpha expression in human HeLa cells at 0.2 to 0.4 uM measured after 48 hrs by Western blot analysis; assay type: functional, cell-based; settings: dose 0.2-0.4 µM
# [20] = system: HCT-116; test: Induction of ROS production in human HCT-116 cells at 0.2 to 0.4 uM incubated for 24 hrs by DCFH-DA probe based flow cytometric analysis; assay type: functional, cell-based; settings: dose 0.2-0.4 µM
# [21] = system: HeLa; test: Antitumor activity against human HeLa cells xenografted in female BALB/c nude mouse assessed as reduction in tumor cell volume at 20 mg/kg, ip administered as liposome formulation once daily for 13 days relative to control; assay type: functional; design: scale not given: the % may be the effect or the level left; settings: time 13 day
# [22] = system: MCF7; test: Cytotoxicity against human MCF7 cells assessed as survival rate at 10 uM measured after 72 hrs by MTT assay relative to control; assay type: functional; settings: read-out: Survival
# [23] = system: HeLa; test: Induction of apoptosis in human HeLa cells assessed as viable cells at 0.4 uM incubated for 24 hrs by Annexin V-FITC/PI staining based flow cytometric analysis (reference value: 90.6 %); assay type: functional; settings: read-out: Activity
# [24] = Selectivity index, ratio of IC50 for HHL-5 cells to IC50 for human HeLa cells; assay type: toxicity; settings: HHL-5 cells and HeLa cells, pooled result: one value given for 6 cell lines, strains, targets or settings, read-out: Ratio IC50
# [25] = Drug localization in human HCT-116 cell endoplasmic reticulum incubated for 8 hrs by […] dye based fluorescence microscopic analysis; assay type: ADME, subcellular; settings: hct-116, 8 h
# [26] = system: HeLa; test: Induction of ROS production in human HeLa cells at 0.2 to 0.4 uM incubated for 24 hrs by DCFH-DA probe based flow cytometric analysis; assay type: functional, cell-based; settings: dose 0.2-0.4 µM
smiles,measurement,setting,value
COc1ccc(C2=CC(=O)O/C2=C\c2ccc(O)cc2)cc1,Activity,[1],40.6%
same,Activity,[2],58.6%
same,Activity,[3],Active; Compound Impacts Endoplasmic Reticulum Stress Related Perk-Eif2Alpha-Chop Signalling Pathway
same,Activity,[4],4.86%
same,IC50,[5],1 µM
same,viability at 0.2 µM,[6],82.7%
same,viability at 0.4 µM,[7],69.6%
same,Activity,[8],11.5%
same,Drug uptake,[9],Active
same,fold change (FC),[10],>4
same,Activity,[11],Active
same,Activity,[12],22.8%
same,inhibition at 10 µM,[13],> 50%
same,Activity,[14],Active; Compound Impacts Endoplasmic Reticulum Stress Related Perk-Eif2Alpha-Chop Signalling Pathway
same,Activity,[15],Dose-dependent-effect
same,IC50,[16],0.2 µM
same,inhibition at 10 µM,[17],> 50%
same,IC50,[18],1.1 µM
same,Activity,[19],Active; Compound Impacts Endoplasmic Reticulum Stress Related Perk-Eif2Alpha-Chop Signalling Pathway
same,Activity,[20],Active
same,Activity,[21],>60%
same,viability at 10 µM,[22],24.8%
same,viability at 0.4 µM,[23],47.9%
same,selectivity ratio,[24],2.6
same,Drug uptake,[25],Active
same,Activity,[26],Active
